From patent publication EP4737454A1, “GLP-1 RECEPTOR AGONIST, AND PREPARATION METHOD THEREFOR AND USE THEREOF” (Wayne Biotechnology Co., Ltd., priority 2023, dated 2025) come the findings set out here.

This assay deals with Human GLP-1R (Homo sapiens, UniProt P43220). The experiment in a line: cAMP level determination in human GLP-1R stably transfected HEK293T cells (HTRF cAMP kit). The conditions noted are these: 37°C 30 min. Type of assay: cell-based. How it is done: Human GLP-1R HEK293T stably transfected cells were digested with trypsin, terminated with DMEM total (without p/s), centrifuged and washed twice with 1X Stimulation buffer, then resuspended in 1X stimulation buffer and counted. The cells were then prepared as a 1 Million/mL cell suspension in stimulation buffer. Compound powder was first prepared as a 10 mM stock solution in DMSO, then diluted to 2 mM with DMSO, and further prepared as 2X compound in 1X stimulation buffer (Cisbio kit buffer with freshly added IBMX at a final concentration of 0.5 mM). The top dose final concentration was 2000 nM, with a final DMSO concentration of 0.2%, diluted in a 1:3 gradient for 11 gradients.
Human GLP-1R, sequence (P43220 24-463): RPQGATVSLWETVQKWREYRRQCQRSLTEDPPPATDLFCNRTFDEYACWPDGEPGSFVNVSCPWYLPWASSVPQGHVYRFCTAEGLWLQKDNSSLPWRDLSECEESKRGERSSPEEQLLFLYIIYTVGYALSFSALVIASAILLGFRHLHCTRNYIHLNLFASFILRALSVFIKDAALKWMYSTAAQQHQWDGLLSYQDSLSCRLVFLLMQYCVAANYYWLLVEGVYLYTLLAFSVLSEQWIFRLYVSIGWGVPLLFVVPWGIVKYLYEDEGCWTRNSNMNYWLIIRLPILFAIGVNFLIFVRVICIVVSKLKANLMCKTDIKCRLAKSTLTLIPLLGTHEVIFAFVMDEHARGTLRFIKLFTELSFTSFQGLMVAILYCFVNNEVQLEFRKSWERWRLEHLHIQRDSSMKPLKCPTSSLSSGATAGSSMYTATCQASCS
According to the layout, 5 µl of compound was added to each well; Min wells contained 100 nM GLP-1, and Max wells contained 0.2% DMSO in 1X stimulation buffer. 5 µl of cell suspension was added to each well, centrifuged at 300 rpm at room temperature for 1 min, then incubated at 37°C for 30 min. 2X cAMP standards were prepared in 1X Stimulation buffer, with a top final concentration of 2.8 µM, diluted in a 1:3 gradient for 12 doses. According to the layout, 10 µl was added to each well. Finally, d2 and antibody were diluted 20-fold in 1X Detection buffer (Cisbio kit buffer), and 5 µl of each was added to each well according to the layout. After centrifugation at 300 rpm at room temperature for 1 min, the plate was incubated at room temperature for 2 hr.
Stimulation% was calculated based on Min and Max readings (665nm/615nm ratio) using the formula: 100*(ratio Max well - ratio test well)/(ratio Max well - ratio Min well). The cAMP concentration in each test well was derived from the cAMP standard curve, and the data was analyzed using GraphPad Prism 9 to plot four-parameter fit curves and calculate EC50 values using the formula: Y=Bottom + (Top-Bottom)/(1+10^((LogEC50-X)*HillSlope)). Table 1: cAMP Level Determination in Human GLP-1R Stably Transfected HEK293T Cells
`Cc1cc(-n2nc3c(c2-n2ccn(-c4ccc(N(C)C(=O)C5CC5)c(Cl)c4)c2=O)[C@H](C)N(C(=O)c2cc4cc([C@H]5CCOC(C)(C)C5)ccc4n2[C@@]2(c4noc(=O)[nH]4)C[C@@H]2C)CC3)cc(C)c1F` [Compound 70] showed an EC50 of 3.55 nM.
On to `Cc1cc(-n2nc3c(c2-n2ccn(-c4ccc(N(C)C(=O)C5(C)CC5)c(F)c4)c2=O)[C@H](C)N(C(=O)c2cc4cc([C@H]5CCOC(C)(C)C5)ccc4n2[C@@]2(c4nc(=O)o[nH]4)C[C@@H]2C)CC3)cc(C)c1F` [Compound 71], for which the midpoint of the response, the EC50, lay at 4.01 nM.
Consider `Cc1cc(-n2nc3c(c2-n2ccn(-c4ccc(N(C)C(=O)C5CCC5)c(F)c4)c2=O)[C@H](C)N(C(=O)c2cc4cc([C@H]5CCOC(C)(C)C5)ccc4n2[C@@]2(c4nc(=O)o[nH]4)C[C@@H]2C)CC3)cc(C)c1F` [Compound 72], for which the response was half-maximal at 9.71 nM (EC50).
As for `Cc1cc(-n2nc3c(c2-n2ccn(-c4ccc(N(C)C(=O)C5CC5)c(Cl)c4F)c2=O)[C@H](C)N(C(=O)c2cc4cc([C@H]5CCOC(C)(C)C5)ccc4n2[C@@]2(c4nc(=O)o[nH]4)C[C@@H]2C)CC3)cc(C)c1F` [Compound 73], the EC50 worked out at 6.25 nM.
Consider `Cc1cc(-n2nc3c(c2-n2ccn(-c4ccc(N(C)C(=O)C5CC5)c(C(F)(F)F)c4)c2=O)[C@H](C)N(C(=O)c2cc4cc([C@H]5CCOC(C)(C)C5)ccc4n2[C@@]2(c4nc(=O)o[nH]4)C[C@@H]2C)CC3)cc(C)c1F` [Compound 74], for which the EC50 was determined as 3.25 nM.
Next, `Cc1cc(-n2nc3c(c2-n2ccn(-c4ccc(N(C)C(=O)C5CC5)cc4F)c2=O)[C@H](C)N(C(=O)c2cc4cc([C@H]5CCOC(C)(C)C5)ccc4n2[C@@]2(c4nc(=O)o[nH]4)C[C@@H]2C)CC3)cc(C)c1F` [Compound 76]: 8.18 nM; `Cc1cc(-n2nc3c(c2-n2ccn(-c4ccc(N(C)C(=O)C5CC5)cc4Cl)c2=O)[C@H](C)N(C(=O)c2cc4cc([C@H]5CCOC(C)(C)C5)ccc4n2[C@@]2(c4nc(=O)o[nH]4)C[C@@H]2C)CC3)cc(C)c1F` [Compound 77]: 6.19 nM.
The compound `Cc1cc(-n2nc3c(c2-n2ccn(-c4ccc(C#N)c(OC(F)(F)F)c4)c2=O)[C@H](C)N(C(=O)c2cc4cc(C5CCOC(C)(C)C5)ccc4n2[C@@]2(c4nc(=O)o[nH]4)C[C@@H]2C)CC3)cc(C)c1F` (stereo partly drawn) [Compound 78] showed an EC50 of 20.3 nM.
`Cc1cc(-n2nc3c(c2-n2ccn(-c4ccc(C#N)c(C5CC5)c4)c2=O)[C@H](C)N(C(=O)c2cc4cc(C5CCOC(C)(C)C5)ccc4n2[C@@]2(c4nc(=O)o[nH]4)C[C@@H]2C)CC3)cc(C)c1F` (stereo partly drawn) [Compound 79] yielded an EC50 of 17.8 nM.
Next, `Cc1cc(-n2nc3c(c2-n2ccn(-c4cccc(C#N)c4)c2=O)[C@H](C)N(C(=O)c2cc4cc(C5CCOC(C)(C)C5)ccc4n2[C@@]2(c4nc(=O)o[nH]4)C[C@@H]2C)CC3)cc(C)c1F` (stereo partly drawn) [Compound 80]: 11.5 nM; `Cc1cc(-n2nc3c(c2-n2ccn(-c4ccc(C#N)cc4F)c2=O)[C@H](C)N(C(=O)c2cc4cc(C5CCOC(C)(C)C5)ccc4n2[C@@]2(c4nc(=O)o[nH]4)C[C@@H]2C)CC3)cc(C)c1F` (stereo partly drawn) [Compound 81]: 11 nM; `Cc1cc(-n2nc3c(c2-n2ccn(-c4ccc(C#N)cc4F)c2=O)[C@H](C)N(C(=O)c2cc4cc([C@@H]5CCOC(C)(C)C5)ccc4n2[C@@]2(c4nc(=O)o[nH]4)C[C@@H]2C)CC3)cc(C)c1F` [Compound 81a]: 387 nM.
`Cc1cc(-n2nc3c(c2-n2ccn(-c4ccc(C#N)cc4F)c2=O)[C@H](C)N(C(=O)c2cc4cc([C@H]5CCOC(C)(C)C5)ccc4n2[C@@]2(c4nc(=O)o[nH]4)C[C@@H]2C)CC3)cc(C)c1F` [Compound 81b] came in with a 50% effective concentration (EC50) of 3.92 nM.
Then `Cc1cc(-n2nc3c(c2-n2ccn(-c4ccc(C#N)c(F)c4)c2=O)[C@H](C)N(C(=O)c2cc4cc([C@@H]5CCOC(C)(C)C5)ccc4n2[C@@]2(c4nc(=O)o[nH]4)C[C@@H]2C)CC3)cc(C)c1F` [Compound 82a], with 459 nM.
`Cc1cc(-n2nc3c(c2-n2ccn(-c4ccc(C#N)c(F)c4)c2=O)[C@H](C)N(C(=O)c2cc4cc([C@H]5CCOC(C)(C)C5)ccc4n2[C@@]2(c4nc(=O)o[nH]4)C[C@@H]2C)CC3)cc(C)c1F` [Compound 82b] registered an EC50 of 6.4 nM.
`Cc1cc(-n2nc3c(c2-n2ccn(-c4cc(F)c(C#N)cc4F)c2=O)[C@H](C)N(C(=O)c2cc4cc(C5CCOC(C)(C)C5)ccc4n2[C@@]2(c4nc(=O)o[nH]4)C[C@@H]2C)CC3)cc(C)c1F` (stereo partly drawn) [Compound 83] showed an EC50 of 12.8 nM.
In the case of `Cc1cc(-n2nc3c(c2-n2ccn(-c4ccc(C(F)(F)F)c(C#N)c4)c2=O)[C@H](C)N(C(=O)c2cc4cc(C5CCOC(C)(C)C5)ccc4n2[C@@]2(c4nc(=O)o[nH]4)C[C@@H]2C)CC3)cc(C)c1F` (stereo partly drawn) [Compound 84], the EC50 worked out at 9.87 nM.
Take `Cc1cc(-n2nc3c(c2-n2ccn(-c4ccc(C#N)cn4)c2=O)[C@H](C)N(C(=O)c2cc4cc(C5CCOC(C)(C)C5)ccc4n2[C@@]2(c4nc(=O)o[nH]4)C[C@@H]2C)CC3)cc(C)c1F` (stereo partly drawn) [Compound 85]: the EC50 came out at 50.2 nM.
On to `Cc1cc(-n2nc3c(c2-n2ccn(-c4ccc(C#N)c(C(F)(F)F)c4)c2=O)[C@H](C)N(C(=O)c2cc4cc(C5CCOC(C)(C)C5)ccc4n2[C@@]2(c4nc(=O)o[nH]4)C[C@@H]2C)CC3)cc(C)c1F` (stereo partly drawn) [Compound 86], for which the EC50 stood at 13.8 nM.
On to `Cc1cc(-n2ccn(-c3c4c(nn3-c3cc(C)c(F)c(C)c3)CCN(C(=O)c3cc5cc(C6CCOC(C)(C)C6)ccc5n3[C@@]3(c5nc(=O)o[nH]5)C[C@@H]3C)[C@H]4C)c2=O)ccc1C#N` (stereo partly drawn) [Compound 87], for which the EC50 came out at 17.6 nM.
Next, `Cc1cc(C#N)ccc1-n1ccn(-c2c3c(nn2-c2cc(C)c(F)c(C)c2)CCN(C(=O)c2cc4cc(C5CCOC(C)(C)C5)ccc4n2[C@@]2(c4nc(=O)o[nH]4)C[C@@H]2C)[C@H]3C)c1=O` (stereo partly drawn) [Compound 88]: 205 nM; `Cc1cc(-n2nc3c(c2-n2ccn(-c4ccccc4C#N)c2=O)[C@H](C)N(C(=O)c2cc4cc(C5CCOC(C)(C)C5)ccc4n2[C@@]2(c4nc(=O)o[nH]4)C[C@@H]2C)CC3)cc(C)c1F` (stereo partly drawn) [Compound 89]: 201 nM; `Cc1cc(-n2nc3c(c2-n2ccn(-c4ccc(C#N)cc4)c2=O)[C@H](C)N(C(=O)c2cc4cc(C5CCOC(C)(C)C5)ccc4n2[C@@]2(c4nc(=O)o[nH]4)C[C@@H]2C)CC3)cc(C)c1F` (stereo partly drawn) [Compound 90]: 15.1 nM.
In the case of `Cc1cc(-n2nc3c(c2-n2ccn(-c4ccc(C#N)nc4)c2=O)[C@H](C)N(C(=O)c2cc4cc(C5CCOC(C)(C)C5)ccc4n2[C@@]2(c4nc(=O)o[nH]4)C[C@@H]2C)CC3)cc(C)c1F` (stereo partly drawn) [Compound 91], it took 38.4 nM to reach a half-maximal effect (EC50).
Then `Cc1cc(-n2nc3c(c2-n2ccn(-c4cc(F)cc(C#N)c4)c2=O)[C@H](C)N(C(=O)c2cc4cc(C5CCOC(C)(C)C5)ccc4n2[C@@]2(c4nc(=O)o[nH]4)C[C@@H]2C)CC3)cc(C)c1F` (stereo partly drawn) [Compound 92], with 43.5 nM.
On to `Cc1cc(-n2nc3c(c2-n2ccn(-c4ccc(C#N)c(F)c4F)c2=O)[C@H](C)N(C(=O)c2cc4cc(C5CCOC(C)(C)C5)ccc4n2[C@@]2(c4nc(=O)o[nH]4)C[C@@H]2C)CC3)cc(C)c1F` (stereo partly drawn) [Compound 93], for which the EC50 worked out at 15.1 nM.
Then `Cc1cc(-n2nc3c(c2-n2ccn(-c4ccc(OC(F)(F)F)c(C#N)c4)c2=O)[C@H](C)N(C(=O)c2cc4cc(C5CCOC(C)(C)C5)ccc4n2[C@@]2(c4nc(=O)o[nH]4)C[C@@H]2C)CC3)cc(C)c1F` (stereo partly drawn) [Compound 94], with 21.6 nM; and `Cc1cc(-n2nc3c(c2-n2ccn(-c4ccc(C#N)c(OC(F)F)c4)c2=O)[C@H](C)N(C(=O)c2cc4cc(C5CCOC(C)(C)C5)ccc4n2[C@@]2(c4nc(=O)o[nH]4)C[C@@H]2C)CC3)cc(C)c1F` (stereo partly drawn) [Compound 95], with 17.6 nM; and `Cc1cc(-n2nc3c(c2-n2ccn(-c4ccc(C#N)c(C)c4F)c2=O)[C@H](C)N(C(=O)c2cc4cc(C5CCOC(C)(C)C5)ccc4n2[C@@]2(c4nc(=O)o[nH]4)C[C@@H]2C)CC3)cc(C)c1F` (stereo partly drawn) [Compound 96], with 7.37 nM.
As for `Cc1cc(-n2nc3c(c2-n2ccn(-c4ccc(C#N)c(Cl)c4F)c2=O)[C@H](C)N(C(=O)c2cc4cc(C5CCOC(C)(C)C5)ccc4n2[C@@]2(c4nc(=O)o[nH]4)C[C@@H]2C)CC3)cc(C)c1F` (stereo partly drawn) [Compound 97], the EC50 was 7.84 nM.
